In ChEMBL document CHEMBL4007387, “Therapeutic evolution of benzimidazole derivatives in the last quinquennial period” (Eur J Med Chem, 2017):

How the values were obtained:
NIH3T3 = assay: Antiproliferative activity against mouse NIH/3T3 cells after 72 hrs by real-time cell analysis; assay type: cell-based; conditions: NIH3T3, 72 h
Hep 3B2 = assay: Antiproliferative activity against human Hep3B cells after 48 hrs by MTT assay; assay type: functional, cell-based
MCF7 = assay: Antiproliferative activity against human MCF7 cells after 48 hrs by MTT assay; assay type: functional, cell-based; conditions: MCF7, 48 h
PBMC = assay: Antiproliferative activity against human PBMC after 48 hrs by MTT assay; assay type: cell-based
HeLa = assay: Antiproliferative activity against human HeLa cells after 48 hrs by MTT assay; assay type: functional, cell-based

Row | Structure (SMILES) | IC50 (NIH3T3) [µM] | IC50 (Hep 3B2) [µM] | IC50 (MCF7) [µM] | IC50 (PBMC) [µM] | IC50 (HeLa) [µM]
1 | COc1ccc2[nH]c(SCC(=O)Nc3ccc(-c4csc(-c5ccccc5)n4)cc3)nc2c1 | 74.6 |  |  |  | 
2 | Cc1nc2ccccc2n1CC(=O)NN |  | 40.5 | 24.2 | 23 | 5.34
